Ki and k2 data for four compounds are collected here from ChEMBL document CHEMBL1129337, “Aristeromycin-5'-carboxaldehyde: a potent inhibitor of S-adenosyl-L-homocysteine hydrolase” (J Med Chem, 1996).

The target in assay [1] is T1, Adenosylhomocysteinase (Homo sapiens, UniProt P23526). As to the kind of experiment: Binding affinity towards purified recombinant human placental S-adenosyl-L-homocysteine hydrolase.
Target sequence in this assay (P23526 whole entry): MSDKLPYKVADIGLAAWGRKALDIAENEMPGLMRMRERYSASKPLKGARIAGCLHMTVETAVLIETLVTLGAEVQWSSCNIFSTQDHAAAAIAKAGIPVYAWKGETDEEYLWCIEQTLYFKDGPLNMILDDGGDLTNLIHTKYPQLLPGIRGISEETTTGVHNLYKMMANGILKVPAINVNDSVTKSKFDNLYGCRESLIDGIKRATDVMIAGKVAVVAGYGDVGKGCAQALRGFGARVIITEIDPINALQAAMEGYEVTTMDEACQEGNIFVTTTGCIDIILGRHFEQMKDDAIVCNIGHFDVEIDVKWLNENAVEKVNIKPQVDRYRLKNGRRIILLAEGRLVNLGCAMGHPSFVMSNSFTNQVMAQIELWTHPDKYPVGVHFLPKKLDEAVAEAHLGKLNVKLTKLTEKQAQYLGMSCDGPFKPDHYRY
The target in assay [2] is T1, Adenosylhomocysteinase.
Target sequence in this assay (P23526 2-432 limits assumed): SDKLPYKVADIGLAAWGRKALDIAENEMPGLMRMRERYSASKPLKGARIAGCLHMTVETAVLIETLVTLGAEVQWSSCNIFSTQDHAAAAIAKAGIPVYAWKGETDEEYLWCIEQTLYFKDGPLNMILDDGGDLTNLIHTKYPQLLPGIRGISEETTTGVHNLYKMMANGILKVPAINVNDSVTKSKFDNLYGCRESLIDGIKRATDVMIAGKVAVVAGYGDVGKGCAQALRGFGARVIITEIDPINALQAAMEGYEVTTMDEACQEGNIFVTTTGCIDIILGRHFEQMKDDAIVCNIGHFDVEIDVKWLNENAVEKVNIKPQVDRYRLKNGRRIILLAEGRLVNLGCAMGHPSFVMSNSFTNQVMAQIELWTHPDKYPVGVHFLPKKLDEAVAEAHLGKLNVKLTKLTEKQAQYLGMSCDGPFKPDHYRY
Description: Apparent inactivation rate constant (k2) for S-adenosyl-L-homocysteine hydrolase

In the case of `Nc1ncnc2c1ncn2[C@@H]1O[C@@H](C=O)[C@@H](O)[C@H]1O`, the Ki on Adenosylhomocysteinase [1] stood at 39 nM. This compound came in with a k2 on Adenosylhomocysteinase [2] of 0.65 min⁻¹.

As to `Nc1ncnc2c1ncn2[C@@H]1O[C@H](C=O)[C@@H](O)[C@H]1O`, the Ki at Adenosylhomocysteinase [1] was found to be 43 nM. The compound further yielded a k2 at Adenosylhomocysteinase [2] of 0.22 min⁻¹.

Turning to `Nc1ncnc2c1ncn2[C@@H]1C[C@H](C=O)[C@@H](O)[C@H]1O`, the Ki on Adenosylhomocysteinase [1] turned out to be 4500 nM. Moreover, the k2 at Adenosylhomocysteinase [2] stood at 0.37 min⁻¹.

For the compound `Nc1ncnc2c1ncn2[C@@H]1C[C@@H](C=O)[C@@H](O)[C@H]1O`, the Ki at Adenosylhomocysteinase [1] turned out to be 273 nM. The compound further returned a k2 on Adenosylhomocysteinase [2] of 1.2 min⁻¹.

As a reminder, the Ki is a measure of affinity in units of concentration, obtained from inhibition or displacement.
